# Results taken from patent US8829000B2, “Substituted imidazo[1,5-A]quinoxalines as phosphodiesterase 9 inhibitors” (ASKA Pharmaceutical Co., Ltd., priority 2006, dated 2014).
# Where a name gives a salt, the structure may show the parent alone.
# Test system: partial urethra obstruction model in guinea pigs
# Experiment: Dysuria pathological model: cystometry in partial urethra obstruction model
# Assay type: in vivo, Hartley female guinea pigs
# Conditions: guinea pig; for Frequency of occurrence of uninhibited contraction, before administration / Residual urine volume, before administration: baseline
# Experimental: Three-four weeks old Hartley female guinea pigs (Japan SLC, Inc.) were given celiotomy under anesthesia with pentobarbital (30 mg/kg i.p.) and in their urethra to the peripheral side by 1-2 mm from the bladder neck, each a polyethylene tube of […] and 2.0 mm in inner diameter was placed.
# The model was catheterized under anesthesia with urethane (1 g/kg i.p.) at the apex of urinary bladder and right jugular vein for cystometrography and intravenous administration, respectively. The other end of the bladder catheter was connected to a pressure transducer and infusion pump via a three way stop-cock, and physiological saline was continuously infused into the bladder through the infusion pump at a rate of 0.4 mL/min. to induce micturition reflex. Immediately after the micturition reflex was induced, infusion of physiological saline into the bladder was stopped. The intravesical pressure at the time the micturition reflex was induced was measured with the pressure transducer, and the obtained cystometrogram was recorded with pen recorder. The urine voided was collected with disposable type weighing dish and its weight was measured. Further the physiological saline remained in the bladder was sucked with syringe via the bladder catheter and the residual urine volume was measured. The operations of suspending the infusion of physiological saline upon induction of micturition reflex, and about 1 minute thereafter resuming the infusion of physiological saline to induce micturition reflex were repeated plural times (generally 4 times) to stabilize the micturition reflex.
# After stabilizing the micturition reflex, a compound solution (prepared by dissolving the compound or methanesulfonic acid salt thereof in DMSO and diluting it with physiological saline or distilled water) or physiological saline was administered into the vein at a volume of 10 mL/kg over 4 minutes, and simultaneously the above-described micturition reflex operations were repeated until 30 minutes passed after initiation of the administration, while measuring the intravesical pressure and the volumes of micturition and residual urine. Also the frequency of uninhibited contraction occurrence during the above-described operations was recorded.
smiles,measurement,setting,value
CC(C)c1ncc2c(=O)[nH]c3cc(C(=O)N(C)C)ccc3n12 [Example 9 (methanesulfonic acid salt)],"Frequency of occurrence of uninhibited contraction, after administration",0.3 mg/kg i.v.,1.45 times/min
same,"Frequency of occurrence of uninhibited contraction, quantitative change",0.3 mg/kg i.v.,−0.64 times/min
same,"Residual urine volume, after administration",0.3 mg/kg i.v.,0.11 mL
same,"Residual urine volume, quantitative change",0.3 mg/kg i.v.,-0.32 mL
same,"Frequency of occurrence of uninhibited contraction, after administration",3 mg/kg i.v.,0.99 times/min
same,"Frequency of occurrence of uninhibited contraction, quantitative change",3 mg/kg i.v.,−1.10 times/min
same,"Residual urine volume, after administration",3 mg/kg i.v.,0.63 mL
same,"Residual urine volume, quantitative change",3 mg/kg i.v.,+0.20 mL
same,"Frequency of occurrence of uninhibited contraction, after administration",10 mg/kg i.v.,0.00 times/min
same,"Frequency of occurrence of uninhibited contraction, quantitative change",10 mg/kg i.v.,−0.57 times/min
same,"Residual urine volume, after administration",10 mg/kg i.v.,0.03 mL
same,"Residual urine volume, quantitative change",10 mg/kg i.v.,-0.34 mL
same,"Frequency of occurrence of uninhibited contraction, before administration",dose group 0.3 mg/kg i.v.,2.09 times/min
same,"Residual urine volume, before administration",dose group 0.3 mg/kg i.v.,0.43 mL
same,"Frequency of occurrence of uninhibited contraction, before administration",dose group 3 mg/kg i.v.,2.09 times/min
same,"Residual urine volume, before administration",dose group 3 mg/kg i.v.,0.43 mL
same,"Frequency of occurrence of uninhibited contraction, before administration",dose group 10 mg/kg i.v.,0.57 times/min
same,"Residual urine volume, before administration",dose group 10 mg/kg i.v.,0.37 mL
CC(C)c1ncc2c(=O)[nH]c3cc(Cl)ccc3n12 [Example 6 (methanesulfonic acid salt)],"Frequency of occurrence of uninhibited contraction, after administration",0.1 mg/kg i.v.,1.82 times/min
same,"Frequency of occurrence of uninhibited contraction, quantitative change",0.1 mg/kg i.v.,+0.62 times/min
same,"Residual urine volume, after administration",0.1 mg/kg i.v.,0.13 mL
same,"Residual urine volume, quantitative change",0.1 mg/kg i.v.,-0.12 mL
same,"Frequency of occurrence of uninhibited contraction, after administration",1 mg/kg i.v.,1.97 times/min
same,"Frequency of occurrence of uninhibited contraction, quantitative change",1 mg/kg i.v.,+0.77 times/min
same,"Residual urine volume, after administration",1 mg/kg i.v.,0.47 mL
same,"Residual urine volume, quantitative change",1 mg/kg i.v.,0.22 mL
same,"Frequency of occurrence of uninhibited contraction, after administration",3 mg/kg i.v.,0.68 times/min
same,"Frequency of occurrence of uninhibited contraction, quantitative change",3 mg/kg i.v.,−0.52 times/min
same,"Residual urine volume, after administration",3 mg/kg i.v.,0.21 mL
same,"Residual urine volume, quantitative change",3 mg/kg i.v.,-0.04 mL
same,"Frequency of occurrence of uninhibited contraction, before administration",dose group 0.1 mg/kg i.v.,1.20 times/min
same,"Residual urine volume, before administration",dose group 0.1 mg/kg i.v.,0.25 mL
same,"Frequency of occurrence of uninhibited contraction, before administration",dose group 1 mg/kg i.v.,1.20 times/min
same,"Residual urine volume, before administration",dose group 1 mg/kg i.v.,0.25 mL
same,"Frequency of occurrence of uninhibited contraction, before administration",dose group 3 mg/kg i.v.,1.20 times/min
same,"Residual urine volume, before administration",dose group 3 mg/kg i.v.,0.25 mL
